The structures appear in SMILES notation.

One test deals with HBV replication in HepG2.2.15 cells. The test is described as follows: HBV inhibition assay in HepG2.2.15 cells (extracellular HBV DNA by qPCR). As to conditions: Hepatitis B virus, HepG2.2.15, 120 h, five days after compound treatment, extracellular HBV DNA in culture supernatant by qPCR, read-out: EC50 (effective compound concentration at which HBV replication was inhibited by 50%). It counts as cell-based, Hepatitis B virus. An excerpt: HepG2.2.15 is a stably-transfected cell line containing the HBV genome. It is derived from the hepatoblastoma cell line Hep G2 (American Type Culture Collection, ATCC® HB-8065™) by the published procedures described in reference: M A Selles et al. Proc. Natl. Acad. Sci. USA 1987, 84, 1005-1009. The cell line was maintained in Dulbecco's modified Eagle's medium and nutrient mixture F-12 (DMEM/F-12, Gibco, Cat. #: 11320-033) supplemented with 10% fetal bovine serum (Gibco, Cat. #:10099-141), 100 U/mL penicillin, 100 μg/mL streptomycin (Gibco, Cat. #:15140-122), and 0.3 mg/mL of G418 Sulfate (Gibco, Cat. #: 10131-027).
HepG2.2.15 cells were seeded into 96-well plates at a density of 3×10^4 cells per well in culture media of 100 μL DMEM/F-12 supplemented with 2.5% fetal bovine serum, 100 U/mL penicillin, 100 μg/mL streptomycin and cultured overnight at 37° C. The test compounds were serially half-log diluted in DMSO, then diluted 100 times in culture media. 100 μL culture media containing diluted compounds were added into the plates to reach 0.5% final concentration of DMSO in every well. Five days after compound treatment, culture supernatant was collected for further analysis.
For quantitative PCR detection of extracellular HBV DNA, culture supernatant was processed by 500 μg/mL Proteinase K (Sigma, Cat. #:P2308) digestion at 50° C. for 1 hour. After heat inactivation of the enzyme at 95° C. for 15 minutes, the samples were subjected to HBV DNA quantification by qPCR. The effective compound concentration at which HBV replication was inhibited by 50% (EC50) was determined.
Turning to `CC1CCS(=O)(=O)N1c1cnn2c1CN(C(=O)Nc1cc(F)c(F)c(F)c1)[C@@H](C)C2` (stereo partly drawn) [Example 16, (6S)-6-methyl-3-(3-methyl-1,1-dioxo-1,2-thiazolidin-2-yl)-N-(3,4,5-trifluorophenyl)-6,7-dihydro-4H-pyrazolo[1,5-a]pyrazine-5-carboxamide], the EC50 is 0.009 µM.
The same measure, in the same setting: next, `C[C@H]1Cn2ncc(N3CCCS3(=O)=O)c2CN1C(=O)NCc1ccsc1` [Example 34, (6S)-3-(1,1-dioxo-1,2-thiazolidin-2-yl)-6-methyl-N-(3-thienylmethyl)-6,7-dihydro-4H-pyrazolo[1,5-a]pyrazine-5-carboxamide]: 0.099 µM; `C[C@H]1Cn2ncc(N3CCCS3(=O)=O)c2CN1C(=O)Nc1ccnc(C(F)F)c1` [Example 6, (6S)—N-[2-(difluoromethyl)-4-pyridyl]-3-(1,1-dioxo-1,2-thiazolidin-2-yl)-6-methyl-6,7-dihydro-4H-pyrazolo[1,5-a]pyrazine-5-carboxamide]: 0.083 µM.
Same read-out and setting: next, `C[C@H]1Cn2ncc(N3CCS3(=O)=O)c2CN1C(=O)Nc1cc(F)c(F)c(F)c1` [Example 25, (6S)-3-(1,1-dioxothiazetidin-2-yl)-6-methyl-N-(3,4,5-trifluorophenyl)-6,7-dihydro-4H-pyrazolo[1,5-a]pyrazine-5-carboxamide]: 0.14 µM; `Cc1cc(NC(=O)N2Cc3c(N4CCCS4(=O)=O)cnn3C[C@@H]2C)ccc1F` [Example 4, (6S)-3-(1,1-dioxo-1,2-thiazolidin-2-yl)-N-(4-fluoro-3-methyl-phenyl)-6-methyl-6,7-dihydro-4H-pyrazolo[1,5-a]pyrazine-5-carboxamide]: 0.006 µM.
The same measure, in the same setting: next, `C[C@H]1Cn2ncc(N3CCCS3(=O)=O)c2CN1C(=O)Nc1cc(F)c(F)c(F)c1` [Example 1, (6S)-3-(1,1-dioxo-1,2-thiazolidin-2-yl)-6-methyl-N-(3,4,5-trifluorophenyl)-6,7-dihydro-4H-pyrazolo[1,5-a]pyrazine-5-carboxamide]: 0.0046 µM.
For the molecule `CC1C(O)CS(=O)(=O)N1c1cnn2c1CN(C(=O)Nc1ccnc(C(F)F)c1)[C@@H](C)C2` (stereo partly drawn) [Example 29, (6S)—N-[2-(difluoromethyl)-4-pyridyl]-3-(4-hydroxy-3-methyl-1,1-dioxo-1,2-thiazolidin-2-yl)-6-methyl-6,7-dihydro-4H-pyrazolo[1,5-a]pyrazine-5-carboxamide], the EC50 was determined as 0.32 µM.
On the same count and under the same terms, next, `C[C@H]1Cn2ncc(N3CCCS3(=O)=O)c2CN1C(=O)NCc1ccccc1` [Example 11, (6S)—N-benzyl-3-(1,1-dioxo-1,2-thiazolidin-2-yl)-6-methyl-6,7-dihydro-4H-pyrazolo[1,5-a]pyrazine-5-carboxamide]: 0.11 µM; `C[C@H]1Cn2ncc(N3CCN(C(=O)OCc4ccccc4)CS3(=O)=O)c2CN1C(=O)Nc1cc(F)c(F)c(F)c1` [Example 13, Benzyl 2-[(6S)-6-methyl-5-[(3,4,5-trifluorophenyl)carbamoyl]-6,7-dihydro-4H-pyrazolo[1,5-a]pyrazin-3-yl]-1,1-dioxo-1,2,5-thiadiazinane-5-carboxylate]: 0.052 µM; `C[C@H]1Cn2ncc(N3CCCS3(=O)=O)c2CN1C(=O)Nc1ccc(Cl)c(F)c1` [Example 3, (6S)—N-(4-chloro-3-fluoro-phenyl)-3-(1,1-dioxo-1,2-thiazolidin-2-yl)-6-methyl-6,7-dihydro-4H-pyrazolo[1,5-a]pyrazine-5-carboxamide]: 0.036 µM.
Same read-out and setting: next, `C[C@H]1Cn2ncc(N3[C@@H](C)CS3(=O)=O)c2CN1C(=O)Nc1cc(F)c(F)c(F)c1` [Example 21, (6S)-6-methyl-3-[(3S)-3-methyl-1,1-dioxo-thiazetidin-2-yl]-N-(3,4,5-trifluorophenyl)-6,7-dihydro-4H-pyrazolo[1,5-a]pyrazine-5-carboxamide]: 0.046 µM; `C[C@H]1Cn2ncc(N3CC4CCC(=O)N4CS3(=O)=O)c2CN1C(=O)Nc1cc(F)c(F)c(F)c1` (stereo partly drawn) [Example 14, (6S)-6-methyl-N-(3,4,5-trifluorophenyl)-3-(3,3,6-trioxo-4,7,8,8a-tetrahydro-1H-pyrrolo[2,1-d][1,2,5]thiadiazin-2-yl)-6,7-dihydro-4H-pyrazolo[1,5-a]pyrazine-5-carboxamide]: 0.028 µM.
Same read-out and setting: next, `C[C@H]1Cn2ncc(N3CCNS3(=O)=O)c2CN1C(=O)Nc1cc(F)c(F)c(F)c1` [Example 19, (6S)-3-(1,1-dioxo-1,2,5-thiadiazolidin-2-yl)-6-methyl-N-(3,4,5-trifluorophenyl)-6,7-dihydro-4H-pyrazolo[1,5-a]pyrazine-5-carboxamide]: 0.014 µM; `C[C@H]1Cn2ncc(N3CC(O)CS3(=O)=O)c2CN1C(=O)Nc1cc(F)c(F)c(F)c1` (stereo partly drawn) [Example 18, (6S)-3-(4-hydroxy-1,1-dioxo-1,2-thiazolidin-2-yl)-6-methyl-N-(3,4,5-trifluorophenyl)-6,7-dihydro-4H-pyrazolo[1,5-a]pyrazine-5-carboxamide]: 0.012 µM; `COC1CS(=O)(=O)N(c2cnn3c2CN(C(=O)Nc2ccnc(C(F)F)c2)[C@@H](C)C3)C1C` (stereo partly drawn) [Example 32-1, (6S)—N-[2-(difluoromethyl)-4-pyridyl]-3-(4-methoxy-3-methyl-1,1-dioxo-1,2-thiazolidin-2-yl)-6-methyl-6,7-dihydro-4H-pyrazolo[1,5-a]pyrazine-5-carboxamide]: 0.17 µM.
As to `C[C@H]1Cn2ncc(N3CCCNS3(=O)=O)c2CN1C(=O)Nc1cc(F)c(F)c(F)c1` [Example 27, (6S)-3-(1,1-dioxo-1,2,6-thiadiazinan-2-yl)-6-methyl-N-(3,4,5-trifluorophenyl)-6,7-dihydro-4H-pyrazolo[1,5-a]pyrazine-5-carboxamide], the EC50 came to 0.044 µM.

The same test, now with this note: five days after compound treatment, extracellular HBV DNA in culture supernatant by qPCR, read-out: EC50 (effective compound concentration at which HBV replication was inhibited by 50%).
Consider `CC1Cn2nnc(N3CCCS3(=O)=O)c2CN1C(=O)Nc1cc(F)c(F)c(F)c1` (single isomer, unassigned) [Example 33-2, 3-(1,1-dioxo-1,2-thiazolidin-2-yl)-6-methyl-N-(3,4,5-trifluorophenyl)-6,7-dihydro-4H-triazolo[1,5-a]pyrazine-5-carboxamide], for which the EC50 is 0.41 µM.
Same read-out and setting: next, `CC1C(O)CS(=O)(=O)N1c1cnn2c1CN(C(=O)Nc1cc(F)c(F)c(F)c1)[C@@H](C)C2` (stereo partly drawn) [Example 28-2, (6S)-3-(4-hydroxy-3-methyl-1,1-dioxo-1,2-thiazolidin-2-yl)-6-methyl-N-(3,4,5-trifluorophenyl)-6,7-dihydro-4H-pyrazolo[1,5-a]pyrazine-5-carboxamide]: 0.018 µM.

(Values after patent publication US10683299B2, “Pyrazolopyrazine and triazolopyrazine compounds for the treatment of infectious diseases” (Hoffmann-La Roche Inc., priority 2017, dated 2020).)
